Patent US8952024B2, “Herbicidal pyrimidone derivatives” (E I du Pont de Nemours and Company, priority 2009, dated 2015)

How the values were obtained:
Format in all cases: in vivo
[1] = tested on: windgrass (Apera spica-venti); assay: Test B postemergence plant response; settings: for Windgrass plant response rating (0 to 100 scale): 62 g ai/ha, 0 is no effect
How it was run: (§1)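 Plants grown in peat/vermiculite medium were sprayed postemergence at 2–18 cm height (1- to 4-leaf stage). After 13–15 days in the greenhouse, response was rated visually against untreated controls on a 0–100 scale (0 no effect, 100 complete control).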

[2] = tested on: canarygrass (Phalaris minor); assay: Test B postemergence plant response; settings: for Canarygrass plant response rating (0 to 100 scale): 62 g ai/ha, 0 is no effect
How it was run: as §1

[3] = tested on: winter barley (Hordeum vulgare); assay: Test B postemergence plant response; settings: for Barley plant response rating (0 to 100 scale): 62 g ai/ha, 0 is no effect
How it was run: as §1

[4] = tested on: chickweed (Stellaria media); assay: Test B postemergence plant response; settings: for Chickweed plant response rating (0 to 100 scale): 62 g ai/ha, 0 is no effect
How it was run: as §1

[5] = tested on: giant foxtail (Setaria faberii); assay: Test B pre-/postemergence plant response; settings: for Foxtail, Giant plant response rating (0 to 100 scale): 62 g ai/ha, 0 is no effect
How it was run: (§2)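 Seeds sown in loam–sand blend were treated preemergence, and plants at 2–18 cm (1- to 4-leaf stage) in peat-based medium were treated postemergence; compounds were formulated in non-phytotoxic solvent with surfactant. After 13–15 days in greenhouse, response was visually rated against controls, 0 (no effect) to 100 (complete control).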

[6] = tested on: Italian ryegrass (Lolium multiflorum); assay: Test B pre-/postemergence plant response; settings: for Ryegrass, Italian plant response rating (0 to 100 scale): 62 g ai/ha, 0 is no effect
How it was run: as §2

[7] = tested on: ragweed (common ragweed, Ambrosia elatior); assay: Test B pre-/postemergence plant response; settings: for Ragweed plant response rating (0 to 100 scale): 62 g ai/ha, 0 is no effect
How it was run: as §2

[8] = tested on: ducksalad (Heteranthera limosa); assay: Test B flooded paddy test; settings: for Plant response rating, Flood, Ducksalad: 250 g ai/ha, flooded paddy test, visual rating on 0 to 100 scale (0 no effect, 100 complete control) after 13 to 15 days; for Plant response rating, Ducksalad: Flood (flooded paddy test), 13 to 15 days; for Ducksalad plant response rating: Flood, 31 g ai/ha, scale 0 to 100 (0 no effect, 100 complete control)
How it was run: (§3)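 Flooded-pot test: water raised to 3 cm above soil when treating, compound put in the water, level unchanged thereafter. Plants were at 2 leaves. Readout after 13 to 15 days, visual, relative to controls; 0 signifies no effect and 100 complete control.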

[9] = tested on: umbrella sedge (Cyperus difformis); assay: Test B flooded paddy test; settings: for Plant response rating, Flood, Sedge, Umbrella: 250 g ai/ha, flooded paddy test, visual rating on 0 to 100 scale (0 no effect, 100 complete control) after 13 to 15 days; for Plant response rating, Sedge, Umbrella: Flood (flooded paddy test), 13 to 15 days; for Sedge, Umbrella plant response rating: Flood, 31 g ai/ha, scale 0 to 100 (0 no effect, 100 complete control)
How it was run: as §3

[10] = tested on: barnyardgrass (Echinochloa crus-galli); assay: Test B flooded paddy test; settings: for Plant response rating, Flood, Barnyardgrass: 250 g ai/ha, flooded paddy test, visual rating on 0 to 100 scale (0 no effect, 100 complete control) after 13 to 15 days; for Plant response rating, Barnyardgrass: Flood (flooded paddy test), 13 to 15 days; for Barnyardgrass plant response rating: Flood, 31 g ai/ha, scale 0 to 100 (0 no effect, 100 complete control)
How it was run: as §3

rice (Oryza sativa) = assay: Test B flooded paddy test; settings: for Plant response rating, Flood, Rice: 250 g ai/ha, flooded paddy test, visual rating on 0 to 100 scale (0 no effect, 100 complete control) after 13 to 15 days; for Plant response rating, Rice: Flood (flooded paddy test), 13 to 15 days; for Rice plant response rating: Flood, 31 g ai/ha, scale 0 to 100 (0 no effect, 100 complete control)
How it was run: as §3

[11] = 31 g ai/ha, postemergence, scale 0 to 100, 0 is no effect, 100 is complete control
[12] = postemergence, 100 is complete control, 13 to 15 days
[13] = Postemergence, 250 g ai/ha, scale 0 to 100 (0 no effect, 100 complete control)
[14] = Postemergence, 125 g ai/ha, visual rating after 13 to 15 days, scale 0 (no effect) to 100 (complete control)
[15] = 62 g ai/ha, scale of 0 to 100 where 0 is no effect and 100 is complete control
[16] = 125 g ai/ha, scale 0 to 100, 0 is no effect, 100 is complete control
[17] = Postemergence, 31 g ai/ha, 0 to 100 scale (0 no effect, 100 complete control)
[18] = Postemergence, 125 g ai/ha, scale 0 to 100 (0 no effect, 100 complete control)
[19] = Postemergence, 250 g ai/ha, scale 0 to 100 (0 no effect, 100 complete control), 13 to 15 days

O=C1CCCC(O)=C1C(=O)c1cnc(C2CC2)n(-c2ccccc2)c1=O [Compound 87]
Plant response rating, Windgrass [1, 11]: 55 | Windgrass plant response rating (0 to 100 scale) [1, 12]: 60 | Plant response rating, Windgrass [1, 13]: 95 | Plant response rating, Canarygrass [2, 11]: 0 | Canarygrass plant response rating (0 to 100 scale) [2, 12]: 30 | Plant response rating, Canarygrass [2, 14]: 35 | Plant response rating, Canarygrass [2, 13]: 35 | Plant response rating, Barley [3, 11]: 0 | Barley plant response rating (0 to 100 scale) [3, 12]: 0 | Plant response rating, Barley [3, 14]: 0 | Plant response rating, Barley [3, 13]: 5 | Plant response rating, Chickweed [4, 11]: 100 | Chickweed plant response rating (0 to 100 scale) [4, 12]: 100 | Plant response rating, Chickweed [4, 14]: 100 | Plant response rating, Chickweed [4, 13]: 100 | Plant response rating, Foxtail, Giant [5, 11]: 75 | Foxtail, Giant plant response rating (0 to 100 scale) [5, 12]: 80 | Plant response rating, Foxtail, Giant [5, 13]: 95 | Plant response rating, Ryegrass, Italian [6, 11]: 5 | Ryegrass, Italian plant response rating (0 to 100 scale) [6, 12]: 10 | Plant response rating, Ryegrass, Italian [6, 13]: 60 | Plant response rating, Ragweed [7, 11]: 85 | Ragweed plant response rating (0 to 100 scale) [7, 12]: 95 | Plant response rating, Ragweed [7, 13]: 98 | Plant response rating, Flood, Ducksalad [8]: 20 | Plant response rating, Ducksalad [8, 15]: 30 | Plant response rating, Ducksalad [8, 16]: 20 | Ducksalad plant response rating [8]: 20 | Plant response rating, Flood, Sedge, Umbrella [9]: 70 | Plant response rating, Sedge, Umbrella [9, 15]: 20 | Plant response rating, Sedge, Umbrella [9, 16]: 50 | Sedge, Umbrella plant response rating [9]: 0 | Plant response rating, Flood, Barnyardgrass [10]: 60 | Plant response rating, Barnyardgrass [10, 15]: 45 | Plant response rating, Barnyardgrass [10, 16]: 55 | Barnyardgrass plant response rating [10]: 20 | Plant response rating, Flood, Rice (rice (Oryza sativa)): 70 | Plant response rating, Rice (rice (Oryza sativa); [15]): 20 | Plant response rating, Rice (rice (Oryza sativa); [16]): 60 | Rice plant response rating (rice (Oryza sativa)): 0

COCCCn1c(-c2cccc(F)c2)ncc(C(=O)C2=C(O)CCCC2=O)c1=O [Compound 126]
Windgrass plant response rating (0 to 100 scale) [1, 12]: 10 | Plant response rating, Windgrass [1, 17]: 10 | Plant response rating, Windgrass [1, 18]: 40 | Canarygrass plant response rating (0 to 100 scale) [2, 12]: 40 | Plant response rating, Canarygrass [2, 17]: 15 | Plant response rating, Canarygrass [2, 18]: 60 | Plant response rating, Canarygrass [2, 13]: 90 | Barley plant response rating (0 to 100 scale) [3, 12]: 5 | Plant response rating, Barley [3, 17]: 5 | Plant response rating, Barley [3, 18]: 15 | Plant response rating, Barley [3, 13]: 40 | Chickweed plant response rating (0 to 100 scale) [4, 12]: 80 | Plant response rating, Chickweed [4, 17]: 65 | Plant response rating, Chickweed [4, 18]: 98 | Plant response rating, Chickweed [4, 13]: 98 | Foxtail, Giant plant response rating (0 to 100 scale) [5, 12]: 80 | Plant response rating, Foxtail, Giant [5, 17]: 70 | Plant response rating, Foxtail, Giant [5, 18]: 85 | Plant response rating, Foxtail, Giant [5, 13]: 90 | Ryegrass, Italian plant response rating (0 to 100 scale) [6, 12]: 5 | Plant response rating, Ryegrass, Italian [6, 17]: 0 | Plant response rating, Ryegrass, Italian [6, 18]: 5 | Plant response rating, Ryegrass, Italian [6, 13]: 50 | Ragweed plant response rating (0 to 100 scale) [7, 12]: 75 | Plant response rating, Ragweed [7, 17]: 55 | Plant response rating, Ragweed [7, 18]: 85 | Plant response rating, Ragweed [7, 13]: 90 | Plant response rating, Flood, Ducksalad [8]: 85 | Plant response rating, Ducksalad [8, 15]: 80 | Plant response rating, Ducksalad [8, 16]: 85 | Ducksalad plant response rating [8]: 75 | Plant response rating, Flood, Sedge, Umbrella [9]: 85 | Plant response rating, Sedge, Umbrella [9, 15]: 70 | Plant response rating, Sedge, Umbrella [9, 16]: 80 | Sedge, Umbrella plant response rating [9]: 50 | Plant response rating, Flood, Barnyardgrass [10]: 75 | Plant response rating, Barnyardgrass [10, 15]: 45 | Plant response rating, Barnyardgrass [10, 16]: 60 | Barnyardgrass plant response rating [10]: 20 | Plant response rating, Flood, Rice (rice (Oryza sativa)): 15 | Plant response rating, Rice (rice (Oryza sativa); [15]): 0 | Plant response rating, Rice (rice (Oryza sativa); [16]): 0 | Rice plant response rating (rice (Oryza sativa)): 0

Cc1ccc(-n2c(-c3cc(F)cc(F)c3)ncc(C(=O)C3=C(O)CCCC3=O)c2=O)cc1 [Compound 162]
Plant response rating, Windgrass [1, 17]: 40 | Plant response rating, Windgrass [1, 18]: 60 | Plant response rating, Windgrass [1, 19]: 80 | Plant response rating, Canarygrass [2, 17]: 40 | Plant response rating, Canarygrass [2, 18]: 90 | Plant response rating, Canarygrass [2, 19]: 90 | Barley plant response rating (0 to 100 scale) [3, 12]: 35 | Plant response rating, Barley [3, 17]: 30 | Plant response rating, Barley [3, 18]: 50 | Plant response rating, Barley [3, 19]: 85 | Plant response rating, Chickweed [4, 17]: 90 | Plant response rating, Chickweed [4, 18]: 100 | Plant response rating, Chickweed [4, 19]: 100 | Plant response rating, Foxtail, Giant [5, 17]: 85 | Plant response rating, Foxtail, Giant [5, 18]: 98 | Plant response rating, Foxtail, Giant [5, 19]: 98 | Plant response rating, Ryegrass, Italian [6, 17]: 40 | Plant response rating, Ryegrass, Italian [6, 18]: 80 | Plant response rating, Ryegrass, Italian [6, 19]: 90 | Plant response rating, Ragweed [7, 17]: 90 | Plant response rating, Ragweed [7, 18]: 100 | Plant response rating, Ragweed [7, 19]: 100 | Plant response rating, Flood, Ducksalad [8]: 100 | Plant response rating, Ducksalad [8, 15]: 100 | Plant response rating, Ducksalad [8, 16]: 100 | Ducksalad plant response rating [8]: 98 | Plant response rating, Flood, Sedge, Umbrella [9]: 100 | Plant response rating, Sedge, Umbrella [9, 15]: 100 | Plant response rating, Sedge, Umbrella [9, 16]: 100 | Sedge, Umbrella plant response rating [9]: 95 | Plant response rating, Flood, Barnyardgrass [10]: 55 | Plant response rating, Barnyardgrass [10, 15]: 25 | Plant response rating, Barnyardgrass [10, 16]: 40 | Barnyardgrass plant response rating [10]: 20 | Plant response rating, Flood, Rice (rice (Oryza sativa)): 90 | Plant response rating, Rice (rice (Oryza sativa); [15]): 25 | Plant response rating, Rice (rice (Oryza sativa); [16]): 90 | Rice plant response rating (rice (Oryza sativa)): 0

O=C1CCCC(O)=C1C(=O)c1cnc(C2CCCC2)n(-c2ccccc2)c1=O [Compound 92]
Plant response rating, Windgrass [1, 11]: 0 | Windgrass plant response rating (0 to 100 scale) [1, 12]: 50 | Plant response rating, Windgrass [1, 13]: 90 | Plant response rating, Canarygrass [2, 11]: 0 | Canarygrass plant response rating (0 to 100 scale) [2, 12]: 0 | Plant response rating, Canarygrass [2, 14]: 0 | Plant response rating, Canarygrass [2, 13]: 0 | Plant response rating, Barley [3, 11]: 0 | Barley plant response rating (0 to 100 scale) [3, 12]: 0 | Plant response rating, Barley [3, 14]: 0 | Plant response rating, Barley [3, 13]: 0 | Plant response rating, Chickweed [4, 11]: 90 | Chickweed plant response rating (0 to 100 scale) [4, 12]: 95 | Plant response rating, Chickweed [4, 14]: 98 | Plant response rating, Chickweed [4, 13]: 100 | Plant response rating, Foxtail, Giant [5, 11]: 65 | Foxtail, Giant plant response rating (0 to 100 scale) [5, 12]: 75 | Plant response rating, Foxtail, Giant [5, 13]: 98 | Plant response rating, Ryegrass, Italian [6, 11]: 0 | Ryegrass, Italian plant response rating (0 to 100 scale) [6, 12]: 0 | Plant response rating, Ryegrass, Italian [6, 13]: 30 | Plant response rating, Ragweed [7, 11]: 40 | Ragweed plant response rating (0 to 100 scale) [7, 12]: 60 | Plant response rating, Ragweed [7, 13]: 75 | Plant response rating, Flood, Ducksalad [8]: 85 | Plant response rating, Ducksalad [8, 15]: 30 | Plant response rating, Ducksalad [8, 16]: 70 | Ducksalad plant response rating [8]: 20 | Plant response rating, Flood, Sedge, Umbrella [9]: 85 | Plant response rating, Sedge, Umbrella [9, 15]: 65 | Plant response rating, Sedge, Umbrella [9, 16]: 70 | Sedge, Umbrella plant response rating [9]: 65 | Plant response rating, Flood, Barnyardgrass [10]: 45 | Plant response rating, Barnyardgrass [10, 15]: 0 | Plant response rating, Barnyardgrass [10, 16]: 20 | Barnyardgrass plant response rating [10]: 0 | Plant response rating, Flood, Rice (rice (Oryza sativa)): 40 | Plant response rating, Rice (rice (Oryza sativa); [15]): 0 | Plant response rating, Rice (rice (Oryza sativa); [16]): 25 | Rice plant response rating (rice (Oryza sativa)): 0
